Measured values taken from patent publication US8952222B2, “Herbicide resistant sunflower plants derived from RW-B cultivar” (Anglo Netherlands Grain B.V., priority 2008, dated 2015).
Values joined by “and” are separate entries in the source; they are usually repeats but may differ in a detail not shown here. Identical values can stand only once. Marks after values point to notes of the source that are not given here.

Tests used:
Assay type in all cases: in vivo
sunflower line B770 [1] = assay: Greenhouse spray with imazapyr, visual inspection for injury; conditions: imazapyr 80 gr ai/ha, two weeks after treatment
Description: (§1) 300 seeds of a wild sunflower population known to be tolerant to IMIs were sown under greenhouse conditions at Nidera Experimental Station in Venado Tuerto, Santa Fe, Argentina, together with the control lines HA89, B770 (Susceptible—[…]), BTI-M1 and RHA426 (Resistant—“R”). At the V4 stage all the plants were sprayed with imazapyr at a rate of 80 gr ai/ha. Two weeks after treatment, all the plants were evaluated by visual inspection for injury. S lines HA89 and B770 were killed by the treatment. […] In total, […] plants of the wild population resisted the herbicide treatment and 129 were killed (categorized as S).
One R plant (RW-73) was used as male in crosses with the cultivated susceptible lines HA89 and B770. Ten to 20 F1 plants from each cross were sprayed with imazapyr at a rate of 80 gr ai/ha, using B770 (S) and BTI-M1 (R) as controls. […] However, imazapyr treatment killed the B770 plants.

sunflower line RHA426 [2] = assay: Allelism test, challenge with imazapyr; conditions: control line RHA426; imazapyr 320 g a.i. ha-1 at V2-V4
Description: RW-B plants were crossed with RHA426 in order to determine if the resistant gene in RW-B is allelic to Imr1, the mutation previously described in imidazolinone resistant inbred lines. In this cross, F1 hybrids plants were self pollinated and backcrossed to RHA426 to obtain the F2 and BC1F1 generations, respectively. Plants from the parents and from F1, F2 and BC were challenged with 160 g a.i. ha^−1 and 320 g a.i. ha^−1 of imazapyr at the V2-V4 stage. Post challenge, plants were scored as described above.
On the other hand, when F2 and BC populations were scored after applying herbicide at the higher rate (320 g a.i. ha^−1), segregation for susceptibility could be observed. Only two phenotypic classes were detected, a resistant class composed of plants that were without any sign of injury or only slight symptoms, and a susceptible phenotype that was killed at this dose in much the same way as the control line RHA426.

sunflower line B770 [3] = assay: Whole plant dose response to imazapyr; conditions: line B770 (WT-Susceptible), 14 DAT; for Dry weight (as a % of the untreated plants): above ground biomass; for Phytotoxicity Index: scale 0-9
Description: (§2) Seeds were sown in Petri dishes and, after germination; plantlets were transplanted to pots of 10 cm of diameter in a potting media consisting of equal parts of vermiculite, soil and sand. Plants were grown in a greenhouse under natural light conditions supplemented with 400 W sodium halide lamps to provide a 16 hr day-length. Day/night temperatures were 25 and 20° C., respectively. At the V2-V4 stage (Schneiter & Miller, 1981) 10 plants of each genotype were randomly assigned to each treatment consisting of eight imazapyr doses (0, 40, 80, 160, 320, 480, 640 and 800 g ai/ha, without treatment, 0.5×, 1×, 2×, 4×, 6×, 8× and 10× respectively), and a zero-time biomass determination. Experiment was arranged as a randomized block design with a full factorial (sunflower line x treatment) arrangement of treatments and 10 replications.
(§3) On the day of herbicide application ten plants of each genotype were cut at the cotyledonal node and dried at 60° C. for 48 hrs for zero-time dried weight determination.
(§4) The remaining plants were maintained for 14 days after imazapyr treatment (DAT) and their height, Phytotoxicity Index (PI) and above ground dry biomass were determined. Height was determined as the distance between the cotyledonal node and the apex of each plant. Above ground biomass data from each line were converted to biomass accumulation after application by subtracting the appropriate average zero-time biomass from each sample. Dry biomass data were converted to percentages of the untreated control plants within each line to allow direct comparisons between groups. […] Plants without any symptoms were recorded as “0”, increasing levels of stunting and chlorosis with respect to the untreated control plants were recorded as “1” to “4”, increasing levels of leaf abnormalities and leaf necrosis were recorded from “5” to “8”, and dead plants with total necrosis of the apex were recorded as “9”.

sunflower line RW-B [4] = assay: Whole plant dose response to imazapyr; conditions: from 4x to 10x rates of herbicide application, 14 DAT
Description: as §2, §3, §4

sunflower line BTI-M1 = assay: Greenhouse spray with imazapyr, visual inspection for injury; conditions: imazapyr 80 gr ai/ha at V4, two weeks after treatment
Description: as §1

sunflower line RHA426 [5] = assay: as above; conditions: imazapyr 80 gr ai/ha at V4, two weeks after treatment
Description: as §1

sunflower line HA89 = assay: as above; conditions: imazapyr 80 gr ai/ha at V4, two weeks after treatment
Description: as §1

sunflower line RW-B [6] = assay: Whole plant dose response to metsulfuron; conditions: line RW-B (W574L), 14 DAT; for Dry weight (as a % of the untreated plants): above ground biomass; for Phytotoxicity Index: scale 0-9
Description: (§5) Seeds were sown in Petri dishes and, after germination, plantlets were transplanted to pots of 10 cm of diameter in a potting media consisting of equal parts of vermiculite, soil and sand. Plants were grown in a greenhouse under natural light conditions supplemented with 400 W sodium halide lamps to provide a 16 hr daylight. Day/night temperatures were 25 and 20° C., respectively. […] Experiment was arranged as a randomized block design with a full factorial (sunflower line x treatment) arrangement of treatments and 10 replications.
as §3
(§6) […] Above ground biomass data from each line were converted to biomass accumulation after application by subtracting the appropriate average zero-time biomass from each sample. Dry biomass data were converted to percentages of the untreated control plants within each line to allow direct comparisons between groups. […] Plants without any symptoms were recorded as “0”, increasing levels of stunting and chlorosis with respect to the untreated control plants were recorded as “1” to “4”, increasing levels of leaf abnormalities and leaf necrosis were recorded from “5” to “8”, and dead plants with total necrosis of the apex were recorded as “9”.

sunflower line SuBL = assay: Whole plant dose response to metsulfuron; conditions: line SuBL (P197L), 14 DAT; for Dry weight (as a % of the untreated plants): above ground biomass; for Phytotoxicity Index: scale 0-9
Description: as §5, §3, §6

sunflower line B770imi = assay: Whole plant dose response to metsulfuron; conditions: line B770IMI (A205V), 14 DAT; for Dry weight (as a % of the untreated plants): above ground biomass; for Phytotoxicity Index: scale 0-9
Description: as §5, §3, §6

sunflower line B770 [7] = assay: Whole plant dose response to metsulfuron; conditions: 14 DAT; for Dry weight (as a % of the untreated plants): above ground biomass, line Suscp; for Phytotoxicity Index: line B770 (WT-Susceptible), scale 0-9

Structure (SMILES): CC(C)C1(C)N=C(c2ncccc2C(=O)O)NC1=O (stereo not drawn) [imazapyr]
- injury by visual inspection (sunflower line B770 [1]): killed
- response to imazapyr (sunflower line RHA426 [2]): killed
- Dry weight (as a % of the untreated plants) (sunflower line B770 [3]; imazapyr 0.5x = 40 g ai/ha): 32.7^d %
- Dry weight (as a % of the untreated plants) (sunflower line B770 [3]; imazapyr 1x = 80 g ai/ha): 30.2^d %
- Dry weight (as a % of the untreated plants) (sunflower line B770 [3]; imazapyr 2x = 160 g ai/ha): 27.6^d %
- Dry weight (as a % of the untreated plants) (sunflower line B770 [3]; imazapyr 4x = 320 g ai/ha): 26.5^d %
- Dry weight (as a % of the untreated plants) (sunflower line B770 [3]; imazapyr 6x = 480 g ai/ha): 25.9^d %
- Dry weight (as a % of the untreated plants) (sunflower line B770 [3]; imazapyr 8x = 640 g ai/ha): 25.7^d %
- Dry weight (as a % of the untreated plants) (sunflower line B770 [3]; imazapyr 10x = 800 g ai/ha): 25.2^d %
- Height (as % of the untreated plants) (sunflower line B770 [3]; imazapyr 0.5x = 40 g ai/ha): 35.0% and 35.0^c %
- Phytotoxicity Index (sunflower line B770 [3]; imazapyr 0.5x = 40 g ai/ha): 8.9^a
- Height (as % of the untreated plants) (sunflower line B770 [3]; imazapyr 1x = 80 g ai/ha): 31.8^c %
- Phytotoxicity Index (sunflower line B770 [3]; imazapyr 1x = 80 g ai/ha): 9^a
- Height (as % of the untreated plants) (sunflower line B770 [3]; imazapyr 2x = 160 g ai/ha): 31.9^d %
- Phytotoxicity Index (sunflower line B770 [3]; imazapyr 2x = 160 g ai/ha): 9^a
- Height (as % of the untreated plants) (sunflower line B770 [3]; imazapyr 4x = 320 g ai/ha): 31.9^d %
- Phytotoxicity Index (sunflower line B770 [3]; imazapyr 4x = 320 g ai/ha): 9^a
- Height (as % of the untreated plants) (sunflower line B770 [3]; imazapyr 6x = 480 g ai/ha): 31.6^d %
- Phytotoxicity Index (sunflower line B770 [3]; imazapyr 6x = 480 g ai/ha): 9^a
- Height (as % of the untreated plants) (sunflower line B770 [3]; imazapyr 8x = 640 g ai/ha): 31.7^d %
- Phytotoxicity Index (sunflower line B770 [3]; imazapyr 8x = 640 g ai/ha): 9^a
- Height (as % of the untreated plants) (sunflower line B770 [3]; imazapyr 10x = 800 g ai/ha): 31.4^c %
- Phytotoxicity Index (sunflower line B770 [3]; imazapyr 10x = 800 g ai/ha): 9^a
- height, % of the untreated control plants (sunflower line RW-B [4]): 75%
- injury by visual inspection (sunflower line BTI-M1): did not present any signs of damage
- injury by visual inspection (sunflower line RHA426 [5]): signs of chlorosis
- injury by visual inspection (sunflower line HA89): killed

Structure (SMILES): COc1nc(C)nc(NC(=O)NS(=O)(=O)c2ccccc2C(=O)O)n1 [metsulfuron]
- Dry weight (as a % of the untreated plants) (sunflower line RW-B [6]; metsulfuron 2x = 10 g ai/ha): 73.9^a %
- Dry weight (as a % of the untreated plants) (sunflower line RW-B [6]; metsulfuron 3x = 15 g ai/ha): 60.7^a %
- Dry weight (as a % of the untreated plants) (sunflower line RW-B [6]; metsulfuron 4x = 20 g ai/ha): 38.1^a %
- Phytotoxicity Index (sunflower line RW-B [6]; metsulfuron 0.5x = 2.5 g ai/ha): 0^c
- Phytotoxicity Index (sunflower line RW-B [6]; metsulfuron 1x = 5 g ai/ha): 0.6^d
- Phytotoxicity Index (sunflower line RW-B [6]; metsulfuron 2x = 10 g ai/ha): 1.1^d
- Phytotoxicity Index (sunflower line RW-B [6]; metsulfuron 3x = 15 g ai/ha): 2.8^c
- Dry weight (as a % of the untreated plants) (sunflower line SuBL; metsulfuron 0.5x = 2.5 g ai/ha): 83.3% and 83.3^b %
- Dry weight (as a % of the untreated plants) (sunflower line SuBL; metsulfuron 1x = 5 g ai/ha): 72.4^b %
- Dry weight (as a % of the untreated plants) (sunflower line SuBL; metsulfuron 2x = 10 g ai/ha): 52.2^b %
- Dry weight (as a % of the untreated plants) (sunflower line SuBL; metsulfuron 3x = 15 g ai/ha): 35.7^b %
- Dry weight (as a % of the untreated plants) (sunflower line SuBL; metsulfuron 4x = 20 g ai/ha): 30.3% and 30.3^b %
- Phytotoxicity Index (sunflower line SuBL; metsulfuron 2x = 10 g ai/ha): 4.3^c
- Phytotoxicity Index (sunflower line SuBL; metsulfuron 3x = 15 g ai/ha): 7.2^b
- Dry weight (as a % of the untreated plants) (sunflower line B770imi; metsulfuron 0.5x = 2.5 g ai/ha): 42^c %
- Dry weight (as a % of the untreated plants) (sunflower line B770imi; metsulfuron 1x = 5 g ai/ha): 30.1^c %
- Dry weight (as a % of the untreated plants) (sunflower line B770imi; metsulfuron 2x = 10 g ai/ha): 30.4^c %
- Dry weight (as a % of the untreated plants) (sunflower line B770imi; metsulfuron 3x = 15 g ai/ha): 30^c %
- Dry weight (as a % of the untreated plants) (sunflower line B770imi; metsulfuron 4x = 20 g ai/ha): 30.2^b %
- Phytotoxicity Index (sunflower line B770imi; metsulfuron 0.5x = 2.5 g ai/ha): 3.3^b
- Phytotoxicity Index (sunflower line B770imi; metsulfuron 1x = 5 g ai/ha): 5.2^b
- Phytotoxicity Index (sunflower line B770imi; metsulfuron 3x = 15 g ai/ha): 9^a
- Phytotoxicity Index (sunflower line B770imi; metsulfuron 4x = 20 g ai/ha): 9^a
- Dry weight (as a % of the untreated plants) (sunflower line B770 [7]; metsulfuron 0.5x = 2.5 g ai/ha): 23.7^d %
- Dry weight (as a % of the untreated plants) (sunflower line B770 [7]; metsulfuron 1x = 5 g ai/ha): 20^d %
- Dry weight (as a % of the untreated plants) (sunflower line B770 [7]; metsulfuron 2x = 10 g ai/ha): 19.4^d %
- Dry weight (as a % of the untreated plants) (sunflower line B770 [7]; metsulfuron 3x = 15 g ai/ha): 19.2^d %
- Dry weight (as a % of the untreated plants) (sunflower line B770 [7]; metsulfuron 4x = 20 g ai/ha): 19.4^c %
- Phytotoxicity Index (sunflower line B770 [7]; metsulfuron 0.5x = 2.5 g ai/ha): 9^a
- Phytotoxicity Index (sunflower line B770 [7]; metsulfuron 1x = 5 g ai/ha): 9^a
- Phytotoxicity Index (sunflower line B770 [7]; metsulfuron 2x = 10 g ai/ha): 9^a
- Phytotoxicity Index (sunflower line B770 [7]; metsulfuron 3x = 15 g ai/ha): 9^a
- Phytotoxicity Index (sunflower line B770 [7]; metsulfuron 4x = 20 g ai/ha): 9^a
